# What was measured:
# Test in all cases: normalised response (% of control), CellTox Green; higher = less cell death (100 = DMSO, 0 = benzethonium chloride kill control)
# Settings in all cases: incubation time: 72 h
# BT-474 = system: BT-474
# How it was run: (§1)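 A 20 µl suspension of breast cancer cells was seeded into each well of 384-well plates containing compound at 5 concentrations in 10-fold steps over a compound-specific 10,000-fold range. After 72 h incubation, CellTox Green fluorescence (485/520 nm) was read first, and CellTiter-Glo luminescence was read after 10 min at room temperature. Each plate was normalised against 0.1 % DMSO (100) and a positive kill control (0), and each value is the normalised signal at one concentration.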
# BT-549 = system: BT-549
# How it was run: as §1
# CAL-120 = system: CAL-120
# How it was run: as §1
# CAL-148 = system: CAL-148
# How it was run: as §1
# CAL-51 = system: CAL-51
# How it was run: as §1
# CAL-85-1 = system: CAL-85-1
# How it was run: as §1
# DU-4475 = system: DU-4475
# How it was run: as §1
# HCC1143 = system: HCC1143
# How it was run: as §1
# HCC1599 = system: HCC1599
# How it was run: as §1
# HCC1937 = system: HCC1937
# How it was run: as §1
# HDQ-P1 = system: HDQ-P1
# How it was run: as §1
# Hs578T = system: Hs578T
# How it was run: as §1
# MCF-10A = system: MCF-10A
# How it was run: as §1
# MDA-MB-231 = system: MDA-MB-231
# How it was run: as §1
# MDA-MB-436 = system: MDA-MB-436
# How it was run: as §1
# MDA-MB-453 = system: MDA-MB-453
# How it was run: as §1
# MDA-MB-468 = system: MDA-MB-468
# How it was run: as §1
# MFM-223 = system: MFM-223
# How it was run: as §1
Structure (SMILES),normalised response (BT-474),normalised response (BT-549),normalised response (CAL-120),normalised response (CAL-148),normalised response (CAL-51),normalised response (CAL-85-1),normalised response (DU-4475),normalised response (HCC1143),normalised response (HCC1599),normalised response (HCC1937),normalised response (HDQ-P1),normalised response (Hs578T),normalised response (MCF-10A),normalised response (MDA-MB-231),normalised response (MDA-MB-436),normalised response (MDA-MB-453),normalised response (MDA-MB-468),normalised response (MFM-223)
Cn1cc(C2=Nc3cc(NC(=O)C(N)C4CCCCC4)cc4c3C2=CNNC4=O)cn1 (stereo unspecified) (1000 nM),92.3%,95.4%,80.1%,86.4%,56%,45.8%,95.2%,4.8%,73.3%,113%,97.4%,-123%,-64.4%,54.1%,85%,91.8%,126%,87.6%
Cn1cc(C2=Nc3cc(NC(=O)C(N)C4CCCCC4)cc4c3C2=CNNC4=O)cn1 (stereo unspecified) (10000 nM),97.1%,39.3%,89.9%,58.5%,-9.5%,59.8%,83.1%,115%,82.4%,95.9%,-67.6%,84.6%,31.3%,54.2%,92.7%,41.1%,13.5%,10.9%
COc1cc2c(cc1O)CC[C@@H]1[C@@H]2CC[C@]2(C)[C@@H](O)CC[C@@H]12 [2-methoxyestradiol] (1000 nM),77.8%,96.5%,91.8%,85.8%,98.3%,83.5%,96.6%,99.8%,93.5%,111%,108%,84.6%,98.5%,34.1%,85.5%,108%,92.5%,64.7%
COc1cc2c(cc1O)CC[C@@H]1[C@@H]2CC[C@]2(C)[C@@H](O)CC[C@@H]12 [2-methoxyestradiol] (10000 nM),70.9%,85.8%,78.8%,78.8%,8.99%,51.6%,97.4%,106%,89%,90%,94.4%,-39.2%,48.3%,-158%,81.1%,94.9%,77.4%,52.5%
Cc1sc2c(c1C)C(c1ccc(Cl)cc1)=N[C@@H](CC(=O)OC(C)(C)C)c1nnc(C)n1-2 [(+)JQ1] (1000 nM),94.4%,97.4%,87.5%,67.3%,90.6%,64.5%,88.2%,-3.05%,95.5%,59.3%,83.5%,98.9%,108%,131%,66.8%,104%,85.6%,98.1%
Cc1sc2c(c1C)C(c1ccc(Cl)cc1)=N[C@@H](CC(=O)OC(C)(C)C)c1nnc(C)n1-2 [(+)JQ1] (10000 nM),92.8%,66.8%,91.3%,50.8%,14.5%,24%,81.4%,123%,87.9%,68.2%,87.6%,100%,101%,62.5%,72.9%,102%,-39.7%,97.8%
Oc1ncnc2[nH]ncc12 [Allopurinol] (1000 nM),100%,103%,95%,106%,118%,99%,96.8%,–,97%,89.9%,106%,101%,94.7%,–,107%,63%,80.5%,103%
Oc1ncnc2[nH]ncc12 [Allopurinol] (10000 nM),104%,89.5%,101%,98%,116%,83.4%,98.6%,117%,102%,76%,108%,70.8%,102%,108%,99.7%,75.7%,79%,94.1%
O=C1CN2Cc3c(ccc(Cl)c3Cl)N=C2N1 [Anagrelide] (1000 nM),97%,97%,97.8%,56.1%,59.7%,103%,97.4%,–,94.3%,88.6%,–,83.8%,104%,86.2%,87.3%,105%,137%,102%
O=C1CN2Cc3c(ccc(Cl)c3Cl)N=C2N1 [Anagrelide] (10000 nM),101%,89.6%,98.9%,60.6%,54.9%,108%,96.3%,85.1%,99%,106%,78.9%,100%,53.2%,94.7%,94.9%,100%,67%,69.6%
Nc1ncn([C@@H]2O[C@H](CO)[C@@H](O)[C@H]2O)c(=O)n1 [Azacitidine] (1000 nM),80.4%,108%,101%,84.3%,105%,98.4%,97%,–,96.4%,–,59.9%,–,101%,93.2%,97.7%,110%,33.9%,89.6%
